In DBAASP:

Assays:
Assay in all cases: ≥ marks a high value that may be exact or a test limit, other limits are often not marked, values filed in µg/mL are converted to µM
[1] = test system: Bacillus subtilis IAM 1071
Bacillus cereus IAM 1110 = test system: Bacillus cereus IAM 1110
[2] = test system: Escherichia coli K-12 W3110
[3] = test system: Micrococcus luteus IAM 1056
[4] = test system: Aeromonas hydrophila IAM 12460
[5] = test system: Proteus vulgaris IAM 12542
[6] = test system: Streptococcus mutans ATCC 25175
[7] = test system: Streptococcus mutans comD
[8] = test system: Streptococcus gordonii ATCC 10558
[9] = test system: Streptococcus gordonii DL1
[10] = test system: Streptococcus sanguinis NY101
[11] = test system: Streptococcus mutans UA159
[12] = test system: Streptococcus sanguinis ATCC 49295
Streptococcus mutans T8 = test system: Streptococcus mutans T8
[13] = test system: Streptococcus mutans GS-5

CC[C@H](C)[C@@H]1NC(=O)CNC(=O)[C@@H]2CSSC[C@@H]3NC(=O)[C@H](C(C)C)NC(=O)[C@H](CCCN=C(N)N)NC(=O)[C@H](CCCCN)NC(=O)[C@H](CCCCN)NC(=O)[C@H](CC(N)=O)NC(=O)[C@H](CSSC[C@H](NC(=O)[C@@H](NC(=O)[C@@H](N)Cc4ccccc4)[C@@H](C)O)C(=O)N[C@@H](CC(=O)O)C(=O)N[C@@H](C(C)C)C(=O)N[C@@H](CC(C)C)C(=O)N[C@@H](CO)C(=O)N[C@@H](C(C)C)C(=O)N[C@@H](CCC(=O)O)C(=O)N[C@@H](C)C(=O)N[C@@H](CCCCN)C(=O)NCC(=O)N[C@@H](C(C)C)C(=O)N[C@@H](CCCCN)C(=O)N[C@@H](CC(C)C)C(=O)N[C@@H](CC(N)=O)C(=O)N[C@@H](Cc4cnc[nH]4)C(=O)N[C@@H](C)C(=O)N[C@@H](C)C(=O)N2)NC(=O)[C@H](Cc2ccc(O)cc2)NC(=O)CNC(=O)CNC(=O)[C@H]([C@@H](C)O)NC(=O)[C@H](CCCN=C(N)N)NC(=O)[C@H](CCCN=C(N)N)NC(=O)[C@H](CCCN=C(N)N)NC(=O)[C@H](Cc2ccccc2)NC(=O)[C@H](CC(C)C)NC(=O)[C@H](CSSC[C@@H](C(=O)N[C@@H](CCCN=C(N)N)C(=O)O)NC(=O)[C@H]([C@@H](C)CC)NC3=O)NC(=O)[C@H](Cc2cnc[nH]2)NC1=O [FTCDVLSVEAKGVKLNHAACGIHCLFRRRTGGYCNKKRVCICR]
MIC [1]: 2.12 µM | MIC (Bacillus cereus IAM 1110): 4.24 µM | MIC [2]: 4.24 µM | MIC [3]: 0.0665 µM | MIC [4]: 2.12 µM | MIC [5]: 2.12 µM

CC(C)C[C@H](NC(=O)[C@H](CCCN=C(N)N)NC(=O)[C@H](Cc1ccccc1)NC(=O)[C@H](Cc1ccccc1)NC(=O)[C@@H](N)[C@@H](C)O)C(=O)N[C@@H](Cc1ccccc1)C(=O)N[C@@H](CC(N)=O)C(=O)N[C@@H](CCCN=C(N)N)C(=O)O [TFFRLFNR]
MIC [6]: ≥ 60 µM | MIC [7]: ≥ 60 µM | MIC [8]: ≥ 233 µM | MIC [9]: ≥ 60 µM | MIC [10]: ≥ 60 µM | MIC [11]: ≥ 233 µM | MIC [12]: ≥ 233 µM | MIC (Streptococcus mutans T8): ≥ 60 µM | MIC [13]: ≥ 233 µM
